Laboratory results: patent US6245917A, “Crystalline sodium phenytoin monohydrate” (Warner-Lambert Company, priority 1999, dated 2001)

Test: Preliminary solubility studies, ethanol versus water
Type: physicochemical

## O=C1NC(=O)C(c2ccccc2)(c2ccccc2)N1 [sodium phenytoin]
  solubility in ethanol compared with water: less soluble in ethanol than it is in water
